ChEMBL document CHEMBL1141344, “Variation in cytostatic constituents of a sponge-derived Gymnascella dankaliensis by manipulating the carbon source” (2007)
Converted amounts (≈) assume the structure as drawn.

What was measured:
Assay type in all cases: functional
OVCAR-5 = experiment: Cytotoxicity against human OVCAR5 cells
SK-OV-3 = experiment: Cytotoxicity against human SKOV3 cells
MKN-28 = experiment: Cytotoxicity against human MKN28 cells
SF-539 = experiment: Cytotoxicity against human SF539 cells
NCI-H522 = experiment: Cytotoxicity against human NCI-H522 cells
HCT-15 = experiment: Cytotoxicity against human HCT15 cells
[1] = Cytotoxicity against human MKN1 cells; conditions: MKN-1
KM12 = experiment: Cytotoxicity against human KM12 cells
[2] = Cytotoxicity against human BSY1 cells; conditions: BSY-1
LOX IMVI = experiment: Cytotoxicity against human LOX IMVI cells
HT-29 = experiment: Cytotoxicity against human HT29 cells
SNB-75 = experiment: Cytotoxicity against human SNB75 cells
SF-268 = experiment: Cytotoxicity against human SF268 cells
DU-145 = experiment: Cytotoxicity against human DU145 cells
[3] = Cytotoxicity against human HBC5 cells
St-4 = experiment: Cytotoxicity against human St4 cells
DMS-114 = experiment: Cytotoxicity against human DMS114 cells
U-251 = experiment: Cytotoxicity against human U251 cells
SNB-78 = experiment: Cytotoxicity against human SNB78 cells
MCF7 = experiment: Cytotoxicity against human MCF7 cells
OVCAR-4 = experiment: Cytotoxicity against human OVCAR4 cells
[4] = Cytotoxicity against human RXF631L cells; conditions: RXF 631
HCT-116 = experiment: Cytotoxicity against human HCT116 cells
A549 = experiment: Cytotoxicity against human A549 cells
P388 = experiment: Growth inhibition of mouse P388 cells; conditions: read-out: ED50 (the source's name)
NCI-H23 = experiment: Cytotoxicity against human NCI-H23 cells
NCI-H226 = experiment: Cytotoxicity against human NCI-H226 cells
OVCAR-8 = experiment: Cytotoxicity against human OVCAR8 cells
MKN-7 = experiment: Cytotoxicity against human MKN7 cells
MKN-74 = experiment: Cytotoxicity against human MKN74 cells
PC-3 = experiment: Cytotoxicity against human PC3 cells
DMS-273 = experiment: Cytotoxicity against human DMS273 cells
ACHN = experiment: Cytotoxicity against human ACHN cells
OVCAR-3 = experiment: Cytotoxicity against human OVCAR-3 cells
NCI-H460 = experiment: Cytotoxicity against human NCI-H460 cells
[5] = Cytotoxicity against human HBC4 cells
MKN-45 = experiment: Cytotoxicity against human MKN45 cells
HCC 2998 = experiment: Cytotoxicity against human HCC2998 cells
SF-295 = experiment: Cytotoxicity against human SF295 cells
MDA-MB-231 = experiment: Cytotoxicity against human MDA-MB-231 cells

EC50 (P388) [µg/mL] | Structure (SMILES) | GI50 (OVCAR-5) [µM] | GI50 (SK-OV-3) [µM] | GI50 (MKN-28) [µM] | GI50 (SF-539) [µM] | GI50 (NCI-H522) [µM] | GI50 (HCT-15) [µM] | GI50 [1] [µM] | GI50 (KM12) [µM] | GI50 [2] [µM] | GI50 (LOX IMVI) [µM] | GI50 (HT-29) [µM] | GI50 (SNB-75) [µM] | GI50 (SF-268) [µM] | GI50 (DU-145) [µM] | GI50 [3] [µM] | GI50 (St-4) [µM] | GI50 (DMS-114) [µM] | GI50 (U-251) [µM] | GI50 (SNB-78) [µM] | further results
1.6 (≈ 3.77 µM) | CC(C)[C@@H](C)/C=C/[C@@H](C)[C@H]1C[C@H]2O[C@]23C2=CC(=O)[C@@H]4CC(=O)CC[C@]4(C)[C@H]2CC[C@]13C [GYMNASTERONE B] | 44.7 | > 100 | 60.3 | > 100 | 26.9 | 69.2 | 45.7 | 67.6 | 15.1 | 87.1 | 30.2 | 56.2 | > 100 | 28.8 | 26.9 | > 100 | 12.9 | > 100 | > 100 | GI50 (MCF7): 33.9 µM; GI50 (OVCAR-4): 49 µM; GI50 [4]: > 100 µM; GI50 (HCT-116): 95.5 µM; GI50 (A549): > 100 µM; GI50 (NCI-H23): 70.8 µM; GI50 (NCI-H226): 41.7 µM; GI50 (OVCAR-8): 67.6 µM; GI50 (MKN-7): 47.9 µM; GI50 (MKN-74): 83.2 µM; GI50 (PC-3): 89.1 µM; GI50 (DMS-273): 41.7 µM; GI50 (ACHN): > 100 µM; GI50 (OVCAR-3): 66.1 µM; GI50 (NCI-H460): > 100 µM; GI50 [5]: > 100 µM; GI50 (MKN-45): 72.4 µM; GI50 (HCC 2998): 51.3 µM; GI50 (SF-295): 36.3 µM; GI50 (MDA-MB-231): 33.1 µM
0.9 (≈ 2.2 µM) | CC(C)[C@@H](C)/C=C/[C@@H](C)[C@H]1CC(=O)C2=C3C=CC4=C[C@@H](O)CC[C@]4(C)[C@H]3CC[C@@]21C [GYMNASTERONE C] | – | – | – | – | – | – | – | – | – | – | – | – | – | – | – | – | – | – | – | –
2.5 (≈ 6.15 µM) | CC(C)[C@@H](C)/C=C/[C@@H](C)[C@H]1CC(=O)C2=C3C=CC4=CC(=O)CC[C@]4(C)[C@H]3CC[C@@]21C [GYMNASTERONE D] | – | – | – | – | – | – | – | – | – | – | – | – | – | – | – | – | – | – | – | –

Further lines, the molecule ahead of its results:

Structure (SMILES) | EC50 (P388) [µg/mL] | GI50 (OVCAR-5) [µM] | GI50 (SK-OV-3) [µM] | GI50 (MKN-28) [µM] | GI50 (SF-539) [µM] | GI50 (NCI-H522) [µM] | GI50 (HCT-15) [µM] | GI50 [1] [µM] | GI50 (KM12) [µM] | GI50 [2] [µM] | GI50 (LOX IMVI) [µM] | GI50 (HT-29) [µM] | GI50 (SNB-75) [µM] | GI50 (SF-268) [µM] | GI50 (DU-145) [µM] | GI50 [3] [µM] | GI50 (St-4) [µM] | GI50 (DMS-114) [µM] | GI50 (U-251) [µM] | GI50 (SNB-78) [µM] | further results
CC(C)[C@@H](C)/C=C/[C@@H](C)[C@H]1CCC(=O)[C@]23CC(=O)C4=CC(=O)CC[C@]4(C)[C@H]2CC[C@]13C [DANKASTERONE A] | 2.2 (≈ 5.18 µM) | 2.29 | 15.8 | 3.98 | 2.09 | 2.51 | 2.51 | 1.82 | 3.72 | 2.19 | 2.19 | 8.13 | 4.27 | 2.82 | 4.07 | 3.31 | 12.9 | 1.7 | 3.72 | 3.02 | GI50 (MCF7): 3.72 µM; GI50 (OVCAR-4): 2.4 µM; GI50 [4]: 15.8 µM; GI50 (HCT-116): 2.29 µM; GI50 (A549): 14.1 µM; GI50 (NCI-H23): 3.8 µM; GI50 (NCI-H226): 3.8 µM; GI50 (OVCAR-8): 3.63 µM; GI50 (MKN-7): 4.57 µM; GI50 (MKN-74): 4.37 µM; GI50 (PC-3): 5.62 µM; GI50 (DMS-273): 1.7 µM; GI50 (ACHN): 2.4 µM; GI50 (OVCAR-3): 2 µM; GI50 (NCI-H460): 11 µM; GI50 [5]: 4.37 µM; GI50 (MKN-45): 11 µM; GI50 (HCC 2998): 1.91 µM; GI50 (SF-295): 3.72 µM; GI50 (MDA-MB-231): 5.89 µM
CC(C)[C@@H](C)/C=C/[C@@H](C)[C@H]1CCC(=O)[C@]23CC(=O)[C@@H]4CC(=O)CC[C@]4(C)[C@H]2CC[C@]13C [DANKASTERONE B] | 2.8 (≈ 6.56 µM) | – | – | – | – | – | – | – | – | – | – | – | – | – | – | – | – | – | – | – | –
CCCCCC[C@H](C)/C=C(C)/C=C/C(=O)N[C@]1(C=O)C[C@H]2C[C@H]([C@H](C)/C=C/[C@H](C)C(C)C)[C@@]3(C)CC[C@H]4C(=C1C(=O)C1=C[C@@H](O)CC[C@@]14C)[C@@]23O [GYMNASTERONE A] | – | > 100 | > 100 | > 38 | 50.1 | 28.2 | > 100 | > 75.9 | > 100 | > 100 | > 100 | > 100 | > 100 | 21.9 | > 100 | > 91.2 | > 100 | 72.4 | > 100 | 12.9 | GI50 (MCF7): 58.9 µM; GI50 (OVCAR-4): 67.6 µM; GI50 [4]: 12.9 µM; GI50 (HCT-116): > 100 µM; GI50 (A549): > 100 µM; GI50 (NCI-H23): > 100 µM; GI50 (NCI-H226): 28.2 µM; GI50 (OVCAR-8): > 100 µM; GI50 (MKN-7): 53.7 µM; GI50 (MKN-74): 28.2 µM; GI50 (PC-3): > 100 µM; GI50 (DMS-273): > 100 µM; GI50 (ACHN): > 100 µM; GI50 (OVCAR-3): 39.8 µM; GI50 (NCI-H460): > 100 µM; GI50 [5]: > 100 µM; GI50 (MKN-45): > 100 µM; GI50 (HCC 2998): > 100 µM; GI50 (SF-295): 87.1 µM; GI50 (MDA-MB-231): > 100 µM
